Consider 28 molecules from patent US11548880B2, “Modulators of hemoglobin” (Global Blood Therapeutics, Inc., priority 2018, dated 2023).

Molecules are shown by their SMILES.

T1 sequence (P69905 2-142 limits assumed): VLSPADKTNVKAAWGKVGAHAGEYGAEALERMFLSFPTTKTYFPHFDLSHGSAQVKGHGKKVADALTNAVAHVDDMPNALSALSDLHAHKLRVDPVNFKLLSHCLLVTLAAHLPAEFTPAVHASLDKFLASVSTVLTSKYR
T1 sequence (P68871 2-147 limits assumed): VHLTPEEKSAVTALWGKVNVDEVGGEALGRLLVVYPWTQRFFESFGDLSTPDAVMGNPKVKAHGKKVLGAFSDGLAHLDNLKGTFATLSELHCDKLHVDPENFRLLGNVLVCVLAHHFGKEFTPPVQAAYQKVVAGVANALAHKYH

The assay addresses T1, Hb (Homo sapiens, UniProt P68871+P69905).
T1 construct: from tissue; host or cells: whole blood
Nature of the assay: Whole blood assay: oxygen equilibrium curves (Hemox Analyzer), change in p50. The note with it: whole blood incubated 1 h at 37° C., equimolar ratio of hemoglobin to compound. The class given is cell-based. The procedure:
Whole blood assay: Oxygen equilibrium curves (OECs) were collected using a TCS Hemox Analyzer (TCS Scientific Company, New Hope, Pa., USA) to measure changes in the binding affinity of O2 to Hb. Whole blood was incubated for 1 h at 37° C. with the indicated compounds in an equimolar ratio of hemoglobin to compound and diluted into TES (2-[[1,3-dihydroxy-2-(hydroxymethyl)propan-2-yl]amino]ethanesulfonic acid)/saline buffer prior to measurements. For example, for whole blood at 20% hematocrit [Hct], which corresponds to 1 mM Hb, a compound concentration of 1 mM was used (for example, for compounds 1-5), and the incubated sample diluted 50- to 100-fold. The concentration for compounds 6-44 (Diastereomers 1 and 2) varied but remained in equimolar ratio to hemoglobin. The diluted samples were then oxygenated with compressed air within the Hemox Analyzer and the OECs were collected during deoxygenation as previously described (Guarnone et al., Haematologica, 1995, 80, 426-430). p 50 (partial pressure of O2 at which Hb is 50% saturated with O2) values were obtained using a non-linear regression analysis. Percentage change in p50 [Δp50(%)] was calculated as follows: Δp50(%)=[(p50 of control)−p50 with compound)/p50 control]×100.
On to `O=Cc1c(O)cccc1OC[C@H]1CCCCN1C(=O)c1cccnc1CCO` [Compound 38, 2-hydroxy-6-{[(2R)-1-[2-(2-hydroxyethyl)pyridine-3-carbonyl]piperidin-2-yl]methoxy}benzaldehyde], for which the “Delta-p50 (%)” value came out at 60.85%.
The result for `COCCc1ncccc1C(=O)N1CCCC[C@H]1COc1cccc(O)c1C=O` [Compound 2, (S)-2-hydroxy-6-((1-(2-(2-methoxyethyl)nicotinoyl)piperidin-2-yl)methoxy)benzaldehyde] reads 84.4%.
The same measure for `O=Cc1c(O)cccc1OCC1CSCCN1C(=O)c1ccccc1CO` (stereo not shown) [Compound 40, 2-hydroxy-6-({4-[2-(hydroxymethyl)benzoyl]thiomorpholin-3-yl}methoxy)benzaldehyde]: 72.82%.
For the molecule `O=Cc1c(O)cccc1OCC1CSCCN1C(=O)c1cccnc1CO` (single isomer, unassigned) [13 (Enantiomer 2), 2-hydroxy-6-((4-(2-(hydroxymethyl)nicotinoyl)-thiomorpholin-3-yl)-methoxy)benzaldehyde], the “Delta-p50 (%)” value is on record as 61.0%.
The result for `O=Cc1c(O)cccc1OC[C@@H]1CCCCN1C(=O)c1ccccc1C(O)CO` (single isomer, unassigned) [34 (Diastereomer 1)] reads 80.43%; that for `CC(O)Cc1ncccc1C(=O)N1CCOC[C@H]1COc1cccc(O)c1C=O` (single isomer, unassigned) [42 (Diastereomer 2)], 75.05%; that for `N#CCCc1ncccc1C(=O)N1CCOC[C@H]1COc1cccc(O)c1C=O` [Compound 28, 3-{3-[(3S)-3-[(2-formyl-3-hydroxyphenoxy)methyl]morpholine-4-carbonyl]pyridin-2-yl}propanenitrile], 83.35%.
The same measure for `O=Cc1c(O)cccc1OC[C@@H]1CCCN1C(=O)c1ccccc1CO` [Compound 26, 2-hydroxy-6-{[(2S)-1-[2-(hydroxymethyl)benzoyl]pyrrolidin-2-yl]methoxy}benzaldehyde]: 51.72%.
The result for `O=Cc1c(O)cccc1OC[C@@H]1CCCCN1C(=O)c1ccccc1C(O)CO` (single isomer, unassigned) [34 (Diastereomer 2)] reads 81.59%; that for `O=Cc1c(O)cccc1OC[C@@H]1CCCCN1C(=O)c1ccccc1CO` [Compound 5, (S)-2-hydroxy-6-((1-(2-(hydroxymethyl)benzoyl)piperidin-2-yl)methoxy)benzaldehyde], 81.0%; that for `O=Cc1c(O)cccc1OC[C@@H]1CCCCN1C(=O)c1ccccc1CCO` [Compound 6, (S)-2-hydroxy-6-((1-(2-(2-hydroxyethyl)benzoyl)-piperidin-2-yl)methoxy)-benzaldehyde], 74.5%.
Take `O=Cc1c(O)cccc1OCC1CSCCN1C(=O)c1cccnc1CCO` (single isomer, unassigned) [10 (Enantiomer 1), 2-hydroxy-6-((4-(2-(2-hydroxyethyl)nicotinoyl)-thiomorpholin-3-yl)-methoxy)benzaldehyde]: the “Delta-p50 (%)” value is listed as 65.6%.
With `O=Cc1c(O)cccc1OC[C@H]1COCCN1C(=O)c1cccnc1CCO` [Compound 37, 2-hydroxy-6-{[(3R)-4-[2-(2-hydroxyethyl)pyridine-3-carbonyl]morpholin-3-yl]methoxy}benzaldehyde], the “Delta-p50 (%)” value was determined as 60.58%.
The same measure for `COCCc1nccnc1C(=O)N1CCC[C@H]1COc1cccc(O)c1C=O` [Compound 25, 2-hydroxy-6-{[(2S)-1-[3-(2-methoxyethyl)pyrazine-2-carbonyl]pyrrolidin-2-yl]methoxy}benzaldehyde]: 53.36%; for `CC(O)c1ncccc1C(=O)N1CCSC[C@H]1COc1cccc(O)c1C=O` (single isomer, unassigned) [43 (Diastereomer 1)]: 64.50%; for `N#CCCc1ncccc1C(=O)N1CCC[C@H]1COc1cccc(O)c1C=O` [Compound 30, (S)-3-(3-(2-((2-formyl-3-hydroxyphenoxy)methyl)-pyrrolidine-1-carbonyl)-pyridin-2-yl)propanenitrile]: 74.19%.
The result for `COCCc1ccccc1C(=O)N1CCOC[C@H]1COc1cccc(O)c1C=O` [Compound 29, 2-hydroxy-6-{[(3S)-4-[2-(2-methoxyethyl)benzoyl]morpholin-3-yl]methoxy}benzaldehyde] reads 78.79%; that for `O=Cc1c(O)cccc1OC[C@@H]1COCCN1C(=O)c1nccnc1CCO` [Compound 21, 2-hydroxy-6-{[(3S)-4-[3-(2-hydroxyethyl)pyrazine-2-carbonyl]morpholin-3-yl]methoxy}benzaldehyde], 60.21%.
The result for `COCCc1nccnc1C(=O)N1CCOC[C@H]1COc1cccc(O)c1C=O` [Compound 27, 2-hydroxy-6-{[(3S)-4-[3-(2-methoxyethyl)pyrazine-2-carbonyl]morpholin-3-yl]methoxy}benzaldehyde] reads 66.58%.
For the molecule `O=Cc1c(O)cccc1OC[C@@H]1COCCN1C(=O)c1nccnc1CO` [Compound 33, 2-hydroxy-6-{[(3S)-4-[3-(hydroxymethyl)pyrazine-2-carbonyl]morpholin-3-yl]methoxy}benzaldehyde], the “Delta-p50 (%)” value is recorded as 49.03%.
As to `O=Cc1c(O)cccc1OC[C@@H]1CCCCN1C(=O)c1cccnc1CCCO` [Compound 18, (S)-2-hydroxy-6-((1-(2-(3-hydroxypropyl)nicotinoyl)-piperidin-2-yl)methoxy)-benzaldehyde], the “Delta-p50 (%)” value turned out to be 79.67%.
As to `O=Cc1c(O)cccc1OCC1CSCCN1C(=O)c1ccccc1CO` (single isomer, unassigned) [40 (Enantiomer 1), 2-hydroxy-6-((4-(2-(hydroxymethyl)benzoyl)-thiomorpholin-3-yl)-methoxy)benzaldehyde], the “Delta-p50 (%)” value is reported as 64.31%.
For `CC(O)Cc1ncccc1C(=O)N1CCSC[C@H]1COc1cccc(O)c1C=O` (single isomer, unassigned) [44 (Diastereomer 1)], the “Delta-p50 (%)” value was determined as 66.57%.
The result for `N#CCCc1ccccc1C(=O)N1CCCC[C@H]1COc1cccc(O)c1C=O` [Compound 15, (S)-3-(2-(2-((2-formyl-3-hydroxyphenoxy)methyl)piperidine-1-carbonyl)phenyl)propanenitrile] reads 80.5%; that for `CC(O)c1ncccc1C(=O)N1CCOC[C@H]1COc1cccc(O)c1C=O` (single isomer, unassigned) [41 (Diastereomer 1)], 66.71%; that for `CC(O)Cc1ncccc1C(=O)N1CCOC[C@H]1COc1cccc(O)c1C=O` (single isomer, unassigned) [42 (Diastereomer 1)], 76.39%.
`COCCc1ccccc1C(=O)N1CCCC[C@H]1COc1cccc(O)c1C=O` [Compound 14, (S)-2-hydroxy-6-((1-(2-(2-methoxyethyl)benzoyl)piperidin-2-yl)methoxy)benzaldehyde]: the “Delta-p50 (%)” value came out at 74.56%.
The same measure for `O=Cc1c(O)cccc1OC[C@@H]1CCCCN1C(=O)c1ccccc1CCN1CCCC1` [Compound 17, (S)-2-hydroxy-6-((1-(2-(2-(pyrrolidin-1-yl)ethyl)benzoyl)piperidin-2-yl)methoxy)benzaldehyde]: 27.09%.
